# Laboratory results from ChEMBL document CHEMBL1201862, “PubChem BioAssay data set” (2004).
# Calls of active or inactive are those of the source.
# Assays:
# [1] = loss of viability in HepG2 cells – cell-based, CellTiter-Glo, cherry-picked, cytotoxicity control for Shn3 inhibitor project, dose response (AID 624134); type: functional
# [2] = non-specific 3'UTR reporter inhibition in Clone20-Shn3RL – cell-based, Renilla luciferase, cherry-picked, counter-screen for Shn3 inhibitor project, dose response (AID 624133); type: functional
# [3] = reduction of Shn3 3'UTR-driven luciferase in osteoblasts – cell-based, Clone20 osteoblasts, firefly luciferase, cherry-picked, dose response (AID 624132); type: functional;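 further: firefly luciferase luminescence from reporter carrying the Shn3 3'UTR in osteoblasts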
# [4] = biological target: T1, Polyadenylate-binding protein 1 (Homo sapiens, UniProt P11940); assay: MLLE binding blockers, Cy5 peptide tracer – biochemical, fluorescence polarization, Cy5-PAM2 peptide, secondary, miRNA deadenylation inhibitor project, dose response (AID 602260); type: functional; conditions: read-out: IC50_Mean
# T1 sequence (P11940 whole entry, the tested form may be a part): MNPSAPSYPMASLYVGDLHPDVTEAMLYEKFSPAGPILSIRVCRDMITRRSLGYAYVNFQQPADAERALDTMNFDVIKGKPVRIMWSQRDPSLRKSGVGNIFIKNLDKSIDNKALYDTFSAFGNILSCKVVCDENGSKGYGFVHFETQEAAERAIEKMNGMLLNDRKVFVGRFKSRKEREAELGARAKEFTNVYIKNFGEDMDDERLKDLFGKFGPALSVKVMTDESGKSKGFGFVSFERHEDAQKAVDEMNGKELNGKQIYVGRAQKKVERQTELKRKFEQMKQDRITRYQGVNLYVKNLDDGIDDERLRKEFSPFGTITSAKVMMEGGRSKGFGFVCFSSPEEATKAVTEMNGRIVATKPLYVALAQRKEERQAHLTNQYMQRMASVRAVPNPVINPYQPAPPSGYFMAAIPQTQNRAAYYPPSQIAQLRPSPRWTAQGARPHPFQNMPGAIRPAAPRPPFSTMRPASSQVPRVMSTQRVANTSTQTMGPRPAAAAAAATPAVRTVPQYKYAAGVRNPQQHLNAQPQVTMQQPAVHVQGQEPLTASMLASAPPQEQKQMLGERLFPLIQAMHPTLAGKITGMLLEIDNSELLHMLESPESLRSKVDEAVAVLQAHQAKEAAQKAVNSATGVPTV
# [5] = biological target: T1, Polyadenylate-binding protein 1; assay: MLLE domain peptide-binding blockers, IC50 – biochemical, fluorescence polarization, FITC-PAM2 peptide, dose response (AID 602259); type: functional; conditions: read-out: IC50_Mean
# INS1 = assay: INS-1E survival protection against cytokine death – cell-based, luminescence, retest, dose response (AID 449756); type: functional; conditions: Rattus norvegicus;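 further: cell death triggered by IL-1 beta plus TNF-alpha plus IFN-gamma mixture; protective hits raise ATP signal compared with cytokine alone wells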
# Leucine aminopeptidase = biological target: T2, Leucine aminopeptidase (Plasmodium falciparum 3D7, UniProt Q8IL11); assay: P. falciparum M17LAP inhibitors, primary screen, biochemical, fluorogenic H-Leu-NHMec substrate, 1536-well (AID 1619); type: functional
# T2 sequence (Q8IL11 whole entry): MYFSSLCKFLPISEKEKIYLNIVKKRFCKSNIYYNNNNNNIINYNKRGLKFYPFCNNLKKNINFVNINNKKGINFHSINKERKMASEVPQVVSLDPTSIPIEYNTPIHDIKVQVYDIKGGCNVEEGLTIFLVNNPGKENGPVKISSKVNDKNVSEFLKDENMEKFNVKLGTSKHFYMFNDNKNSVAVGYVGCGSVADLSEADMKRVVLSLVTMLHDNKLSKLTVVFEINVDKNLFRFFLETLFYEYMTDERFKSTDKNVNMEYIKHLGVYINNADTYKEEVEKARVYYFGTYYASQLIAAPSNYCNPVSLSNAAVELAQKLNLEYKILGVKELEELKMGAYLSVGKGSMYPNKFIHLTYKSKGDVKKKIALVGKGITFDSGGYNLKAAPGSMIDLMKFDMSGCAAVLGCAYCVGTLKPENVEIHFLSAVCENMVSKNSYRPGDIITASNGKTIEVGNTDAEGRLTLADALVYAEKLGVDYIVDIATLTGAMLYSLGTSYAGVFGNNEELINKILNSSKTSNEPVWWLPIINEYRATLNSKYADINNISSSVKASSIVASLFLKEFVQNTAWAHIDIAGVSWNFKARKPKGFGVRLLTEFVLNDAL
# Genome polyprotein = Genome polyprotein (dengue virus type 2, UniProt P29990); assay: flavivirus cap methylation enzyme inhibition – biochemical, confirmation dose response, primary screen (AID 588689); type: functional
# Chain of Genome polyprotein (P29990 2492-3391 limits assumed): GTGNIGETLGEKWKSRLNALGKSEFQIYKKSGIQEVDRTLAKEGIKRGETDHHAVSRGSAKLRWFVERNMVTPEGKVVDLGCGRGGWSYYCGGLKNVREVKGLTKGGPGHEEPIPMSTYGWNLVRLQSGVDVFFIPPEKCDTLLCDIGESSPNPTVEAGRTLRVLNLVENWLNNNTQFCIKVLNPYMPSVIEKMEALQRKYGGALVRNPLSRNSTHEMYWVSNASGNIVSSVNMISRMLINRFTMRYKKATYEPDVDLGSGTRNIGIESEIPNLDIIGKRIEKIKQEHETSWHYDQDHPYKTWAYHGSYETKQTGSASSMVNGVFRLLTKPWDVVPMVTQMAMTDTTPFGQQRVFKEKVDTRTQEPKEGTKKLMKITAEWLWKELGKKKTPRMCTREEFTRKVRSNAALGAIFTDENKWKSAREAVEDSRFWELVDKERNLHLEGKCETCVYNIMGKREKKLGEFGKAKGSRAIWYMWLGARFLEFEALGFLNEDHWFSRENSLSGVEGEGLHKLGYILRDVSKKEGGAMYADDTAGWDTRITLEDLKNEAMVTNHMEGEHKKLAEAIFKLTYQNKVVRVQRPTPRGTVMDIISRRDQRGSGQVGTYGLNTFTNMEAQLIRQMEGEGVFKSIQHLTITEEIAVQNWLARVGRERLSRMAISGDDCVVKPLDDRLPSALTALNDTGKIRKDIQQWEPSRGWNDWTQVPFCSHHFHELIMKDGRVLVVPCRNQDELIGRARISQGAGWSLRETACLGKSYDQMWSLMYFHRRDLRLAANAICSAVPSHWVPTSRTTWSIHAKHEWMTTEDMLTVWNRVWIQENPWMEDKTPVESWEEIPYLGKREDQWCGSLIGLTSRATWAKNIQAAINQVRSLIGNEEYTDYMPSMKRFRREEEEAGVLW
# [6] = alpha-synuclein stem-loop luciferase translation blockers – H4 neuroglioma cells, luminescence, confirmation (AID 1988); type: functional, cell-based
# [7] = luciferase reporter signal suppression in cells – H4 neuroglioma cells, luminescence, dose response (AID 1990); type: functional, cell-based
# [8] = Luminescence Cell-Based Dose Response HTS to Identify Inhibitors of 5'UTR Stem-Loop Driven Prion Protein mRNA Translation in H4 Neuroglioblastoma Cells. [Related pubchem assays: 1827 (Project Summary), 1813 (Primary HTS)]; type: functional
# [9] = biological target: Photoreceptor-specific nuclear receptor (Homo sapiens, UniProt Q9Y5X4); type: functional, cell-based;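 further: CHO-S cells with Gal4-NCOR and VP16-NR2E3 two-hybrid luciferase reporter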
# Chain of Photoreceptor-specific nuclear receptor (Q9Y5X4 whole entry, the tested form may be a part): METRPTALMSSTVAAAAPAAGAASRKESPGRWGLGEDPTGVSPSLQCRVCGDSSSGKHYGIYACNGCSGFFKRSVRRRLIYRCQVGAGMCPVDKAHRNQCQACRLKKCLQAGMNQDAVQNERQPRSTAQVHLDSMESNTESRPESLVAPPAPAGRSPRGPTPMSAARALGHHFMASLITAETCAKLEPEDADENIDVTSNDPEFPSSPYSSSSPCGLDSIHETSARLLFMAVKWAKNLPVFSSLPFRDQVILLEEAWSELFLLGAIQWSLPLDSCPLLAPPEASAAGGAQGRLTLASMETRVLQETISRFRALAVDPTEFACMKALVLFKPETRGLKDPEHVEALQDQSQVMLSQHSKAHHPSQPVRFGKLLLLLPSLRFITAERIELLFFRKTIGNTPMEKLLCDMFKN
# Protein skinhead-1 = biological target: T3, Protein skinhead-1 (Caenorhabditis elegans, UniProt P34707); type: functional
# T3 sequence (P34707 whole entry): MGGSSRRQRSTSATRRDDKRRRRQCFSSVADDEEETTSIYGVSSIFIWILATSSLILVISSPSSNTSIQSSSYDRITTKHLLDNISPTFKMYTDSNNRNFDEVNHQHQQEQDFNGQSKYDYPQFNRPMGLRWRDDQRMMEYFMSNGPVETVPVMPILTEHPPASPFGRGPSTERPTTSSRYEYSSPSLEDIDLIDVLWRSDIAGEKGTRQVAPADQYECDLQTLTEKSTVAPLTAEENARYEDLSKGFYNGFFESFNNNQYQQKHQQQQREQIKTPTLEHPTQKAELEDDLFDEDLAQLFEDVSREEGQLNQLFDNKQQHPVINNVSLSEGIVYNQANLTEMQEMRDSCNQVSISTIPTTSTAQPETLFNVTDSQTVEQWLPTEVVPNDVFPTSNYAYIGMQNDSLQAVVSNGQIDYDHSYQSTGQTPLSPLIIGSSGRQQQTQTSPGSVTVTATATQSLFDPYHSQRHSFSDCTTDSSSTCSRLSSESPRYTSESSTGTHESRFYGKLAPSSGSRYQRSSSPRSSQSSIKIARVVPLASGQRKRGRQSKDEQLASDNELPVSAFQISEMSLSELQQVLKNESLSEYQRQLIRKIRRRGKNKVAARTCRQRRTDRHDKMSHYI
# [10] = biological target: FAD-linked sulfhydryl oxidase ALR (Homo sapiens, UniProt P55789); assay: ALR-catalysed DTT oxidation blockers – biochemical, H2O2 detection, luminescence, cherry-pick, dose response (AID 493248)
# Chain of FAD-linked sulfhydryl oxidase ALR (P55789 whole entry): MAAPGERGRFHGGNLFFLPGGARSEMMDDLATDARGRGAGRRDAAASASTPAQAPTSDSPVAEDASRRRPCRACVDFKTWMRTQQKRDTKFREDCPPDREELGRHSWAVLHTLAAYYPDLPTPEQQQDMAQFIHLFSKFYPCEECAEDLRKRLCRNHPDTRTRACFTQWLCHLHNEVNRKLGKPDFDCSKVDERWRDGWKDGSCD
# Cytochrome P450 2C19 = Cytochrome P450 2C19 (Homo sapiens, UniProt P33261); assay: Cytochrome panel assay with activity outcomes. Panel member name: p450-cyp2c19 Compounds with AC50 equal or less than 10 uM are considered active; type: functional; conditions: read-out: AC50
# Chain of Cytochrome P450 2C19 (P33261 whole entry): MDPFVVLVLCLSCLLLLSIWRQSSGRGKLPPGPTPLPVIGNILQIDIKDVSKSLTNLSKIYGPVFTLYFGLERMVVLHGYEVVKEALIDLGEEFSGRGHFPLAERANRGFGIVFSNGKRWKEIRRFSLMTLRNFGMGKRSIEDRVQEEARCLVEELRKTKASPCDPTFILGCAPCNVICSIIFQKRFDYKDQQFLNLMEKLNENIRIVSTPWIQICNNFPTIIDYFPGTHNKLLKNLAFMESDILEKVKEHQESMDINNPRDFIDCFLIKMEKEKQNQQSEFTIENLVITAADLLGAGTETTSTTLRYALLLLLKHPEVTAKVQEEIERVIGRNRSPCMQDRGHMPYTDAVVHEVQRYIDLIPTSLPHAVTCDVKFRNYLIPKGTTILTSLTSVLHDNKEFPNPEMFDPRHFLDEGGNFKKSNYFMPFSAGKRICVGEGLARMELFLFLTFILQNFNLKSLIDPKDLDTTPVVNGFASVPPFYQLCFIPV
# [11] = biological target: DNA (cytosine-5)-methyltransferase 1 (Homo sapiens, UniProt P26358); assay: inhibition of DNA methylation by DNMT1 – biochemical, fluorescent molecular beacon, confirmation (AID 602386); type: functional
# Chain of DNA (cytosine-5)-methyltransferase 1 (P26358 whole entry): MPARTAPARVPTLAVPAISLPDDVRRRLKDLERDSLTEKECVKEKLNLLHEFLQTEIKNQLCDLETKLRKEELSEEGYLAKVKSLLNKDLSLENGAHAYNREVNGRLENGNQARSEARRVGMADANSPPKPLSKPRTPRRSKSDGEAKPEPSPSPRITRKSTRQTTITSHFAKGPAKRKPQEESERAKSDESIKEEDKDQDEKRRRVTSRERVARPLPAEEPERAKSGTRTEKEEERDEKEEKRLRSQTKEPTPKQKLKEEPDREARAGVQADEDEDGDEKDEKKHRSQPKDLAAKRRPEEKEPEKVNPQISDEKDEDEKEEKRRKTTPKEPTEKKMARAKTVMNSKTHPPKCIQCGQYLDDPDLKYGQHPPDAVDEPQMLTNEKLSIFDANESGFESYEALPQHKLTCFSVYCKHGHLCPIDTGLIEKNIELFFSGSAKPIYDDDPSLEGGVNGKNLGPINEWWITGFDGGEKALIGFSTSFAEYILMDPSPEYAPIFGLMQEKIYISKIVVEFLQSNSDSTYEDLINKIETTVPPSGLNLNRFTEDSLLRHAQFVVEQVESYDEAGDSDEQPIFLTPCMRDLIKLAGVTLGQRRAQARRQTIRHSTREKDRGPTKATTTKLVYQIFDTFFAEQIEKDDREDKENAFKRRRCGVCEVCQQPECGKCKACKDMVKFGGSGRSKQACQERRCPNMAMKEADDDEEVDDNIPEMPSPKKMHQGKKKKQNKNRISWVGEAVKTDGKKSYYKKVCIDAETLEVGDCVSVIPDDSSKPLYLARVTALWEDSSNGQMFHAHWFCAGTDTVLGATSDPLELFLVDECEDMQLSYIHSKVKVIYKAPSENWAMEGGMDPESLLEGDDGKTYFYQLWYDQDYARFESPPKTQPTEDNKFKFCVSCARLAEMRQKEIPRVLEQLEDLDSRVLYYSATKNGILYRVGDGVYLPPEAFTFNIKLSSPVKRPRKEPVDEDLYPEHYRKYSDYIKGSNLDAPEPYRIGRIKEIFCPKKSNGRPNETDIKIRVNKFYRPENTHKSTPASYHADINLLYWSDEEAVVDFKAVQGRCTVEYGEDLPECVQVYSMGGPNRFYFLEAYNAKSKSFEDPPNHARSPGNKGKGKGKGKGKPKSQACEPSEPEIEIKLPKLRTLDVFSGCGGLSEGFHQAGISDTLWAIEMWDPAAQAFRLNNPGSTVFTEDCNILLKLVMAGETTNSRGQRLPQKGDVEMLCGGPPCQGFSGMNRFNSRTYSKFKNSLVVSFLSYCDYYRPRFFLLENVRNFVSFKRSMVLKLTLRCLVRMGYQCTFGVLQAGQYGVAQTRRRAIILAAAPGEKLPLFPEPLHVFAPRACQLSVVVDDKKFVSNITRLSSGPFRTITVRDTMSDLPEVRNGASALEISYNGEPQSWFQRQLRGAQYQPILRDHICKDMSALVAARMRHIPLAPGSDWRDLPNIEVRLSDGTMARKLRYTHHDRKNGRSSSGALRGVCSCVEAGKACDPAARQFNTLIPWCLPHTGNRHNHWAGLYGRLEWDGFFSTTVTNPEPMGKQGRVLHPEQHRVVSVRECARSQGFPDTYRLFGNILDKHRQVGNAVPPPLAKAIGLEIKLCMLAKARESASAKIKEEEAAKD
# [12] = biological target: T4, Small ubiquitin-related modifier 1 (Homo sapiens, UniProt P63165); assay: SUMO1 protein interaction blockers, potency – biochemical, fluorescence polarization, uHTS hits, dose response (AID 624382); type: functional; conditions: read-out: IC50_Mean
# T4 sequence (P63165 whole entry): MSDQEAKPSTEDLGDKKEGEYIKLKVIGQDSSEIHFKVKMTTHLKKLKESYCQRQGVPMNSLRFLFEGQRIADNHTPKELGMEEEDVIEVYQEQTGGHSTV
# [13] = biological target: T4, Small ubiquitin-related modifier 1; assay: SUMO1 protein-protein binding blockers, potency – biochemical, FRET, dose response (AID 624383); type: functional; conditions: read-out: IC50_Mean
# [14] = viability of uninfected HEp-2 cells – cell-based, HTS, cytotoxicity control for RSV inhibitor project, dose response (AID 2410); type: functional; conditions: human respiratory syncytial virus
# [15] = biological target: T5, Replicative DNA helicase DnaB (Mycobacterium tuberculosis, UniProt P9WMR3); assay: DnaB intein splicing inhibitors, dose response, biochemical, cell-free fluorescence (AID 449749); type: functional
# T5 sequence (P9WMR3 whole entry): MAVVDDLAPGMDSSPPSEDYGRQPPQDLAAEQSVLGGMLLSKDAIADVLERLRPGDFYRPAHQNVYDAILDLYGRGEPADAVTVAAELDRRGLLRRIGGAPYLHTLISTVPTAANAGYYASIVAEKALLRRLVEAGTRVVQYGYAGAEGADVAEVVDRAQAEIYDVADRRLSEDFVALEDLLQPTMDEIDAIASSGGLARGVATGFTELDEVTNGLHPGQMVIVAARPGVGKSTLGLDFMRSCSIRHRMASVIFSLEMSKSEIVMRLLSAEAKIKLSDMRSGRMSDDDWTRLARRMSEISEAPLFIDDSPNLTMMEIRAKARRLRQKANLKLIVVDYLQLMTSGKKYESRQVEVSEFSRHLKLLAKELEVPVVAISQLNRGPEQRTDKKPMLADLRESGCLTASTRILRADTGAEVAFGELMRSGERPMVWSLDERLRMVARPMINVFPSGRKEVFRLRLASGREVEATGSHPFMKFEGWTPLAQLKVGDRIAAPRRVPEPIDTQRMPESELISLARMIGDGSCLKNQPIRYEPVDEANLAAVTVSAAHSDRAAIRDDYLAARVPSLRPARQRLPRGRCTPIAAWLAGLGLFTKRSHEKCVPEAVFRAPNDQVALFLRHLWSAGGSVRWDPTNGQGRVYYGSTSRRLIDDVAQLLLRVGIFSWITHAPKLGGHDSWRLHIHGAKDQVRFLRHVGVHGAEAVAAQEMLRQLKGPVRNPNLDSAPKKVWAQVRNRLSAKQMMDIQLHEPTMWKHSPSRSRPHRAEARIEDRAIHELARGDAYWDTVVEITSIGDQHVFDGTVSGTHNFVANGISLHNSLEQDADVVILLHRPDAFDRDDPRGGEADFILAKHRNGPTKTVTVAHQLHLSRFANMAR
# Protein RecA = biological target: T6, Protein RecA (Mycobacterium tuberculosis, UniProt P9WHJ3); assay: Fluorescence Cell-Free Homogeneous Dose Retest to Identify Inhibitors of RecA-Intein Splicing Activity. [Related pubchem assays (depositor defined):AID2097, AID2223, AID489010, AID492950]; type: functional
# T6 sequence (P9WHJ3 whole entry): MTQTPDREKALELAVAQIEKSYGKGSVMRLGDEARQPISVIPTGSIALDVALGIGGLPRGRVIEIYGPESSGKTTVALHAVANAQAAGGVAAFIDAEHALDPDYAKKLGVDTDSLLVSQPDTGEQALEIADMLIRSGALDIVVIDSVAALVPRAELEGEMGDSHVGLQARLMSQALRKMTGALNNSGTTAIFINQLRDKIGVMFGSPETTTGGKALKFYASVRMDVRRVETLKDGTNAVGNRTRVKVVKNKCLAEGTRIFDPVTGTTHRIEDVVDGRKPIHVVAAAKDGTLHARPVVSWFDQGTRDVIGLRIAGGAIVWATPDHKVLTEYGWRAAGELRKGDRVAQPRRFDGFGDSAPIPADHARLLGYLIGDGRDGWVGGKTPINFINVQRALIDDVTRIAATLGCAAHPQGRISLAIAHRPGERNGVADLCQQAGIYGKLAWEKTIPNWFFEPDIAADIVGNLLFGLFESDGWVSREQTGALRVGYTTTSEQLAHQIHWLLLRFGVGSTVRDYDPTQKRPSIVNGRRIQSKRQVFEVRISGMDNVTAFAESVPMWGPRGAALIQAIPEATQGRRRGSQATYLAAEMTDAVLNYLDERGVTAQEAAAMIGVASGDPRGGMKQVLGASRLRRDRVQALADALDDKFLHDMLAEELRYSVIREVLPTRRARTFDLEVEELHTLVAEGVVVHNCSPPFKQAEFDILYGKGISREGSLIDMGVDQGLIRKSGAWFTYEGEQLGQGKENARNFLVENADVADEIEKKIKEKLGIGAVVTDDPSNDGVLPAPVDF
compound,measurement,setting,value
O=C(Nc1cccc(Cl)c1Cl)C1CC(=O)N(c2ccc(Br)cc2)C1 (stereo unspecified),AC50,[1],38.4 µM (active)
same,AC50,[2],9.56 µM (active)
same,AC50,[3],8.23 µM (active)
COc1ccc(NC(=O)c2ccco2)cn1,IC50,[4],> 66 µM (inactive)
same,IC50,[5],34.1 µM (inactive)
Cc1ccc(-n2ncc3c2CCCC3NC(=O)c2ocnc2C)cc1C (stereo unspecified),AC50,[1],0.594 µM (active)
same,AC50,[2],3.35 µM (active)
same,AC50,INS1,3.69 µM (active)
same,AC50,[3],1.29 µM (active)
CCCCCCSc1nc(O)c(C2OC(=O)c3c2ccc(OC)c3OC)c(=O)n1-c1ccccc1 (stereo unspecified),IC50,Leucine aminopeptidase,4.82 µM (active)
same,IC50,Genome polyprotein,30.2 µM (active)
CC(C)(C)NC(=O)CSc1nc2ccc(NC(=O)CSc3nnnn3Cc3ccccc3)cc2s1,AC50,[1],53 µM (active)
same,AC50,[2],6.81 µM (active)
same,AC50,[3],3.26 µM (active)
CCOc1cc(C(=O)CSc2nnc(CNc3ccc(Cl)cc3)o2)ccc1NC(=O)CC,EC50,[6],7.28 µM (active)
same,AC50,[1],29.5 µM (active)
same,EC50,[7],> 120 µM (not active)
same,EC50,[8],23 µM (active)
same,AC50,[2],36.5 µM (active)
same,AC50,[3],7.73 µM (active)
CC(=O)N1c2ccc(S(=O)(=O)N3CCC(C(=O)Nc4cccc(Cl)c4)CC3)cc2CC1C (stereo unspecified),IC50,[9],1.47 µM (active)
O=C(O)CSC1CC(=O)N(c2ccc(Cl)c(Cl)c2)C1=O (stereo unspecified),IC50,[4],> 66 µM (inactive)
same,IC50,[5],> 66 µM (inactive)
CC(C)(C)NC(=O)CN(C(=O)CCN1CCCc2ccccc21)C(C)(C)C,IC50,Protein skinhead-1,> 100 µM (inactive)
same,AC50,[10],4.37 µM (active)
same,IC50,[4],> 66 µM (inactive)
same,IC50,[5],> 66 µM (inactive)
CCCCc1c(O)n(-c2ccccc2)c(SCCN(C)C)nc1=O,AC50,Cytochrome P450 2C19,6.31 µM (inconclusive)
same,IC50,[4],> 66 µM (inactive)
same,IC50,[5],> 66 µM (inactive)
CCOC(=O)c1nn(-c2ccc(F)cc2)c(=O)cc1OCC(=O)Nc1ccc(OCC)cc1,IC50,[11],> 99 µM (inactive)
CC(C)(CNC(=O)c1ccc(Cl)c(S(=O)(=O)N2CCc3ccccc3C2)c1)N1CCOCC1,AC50,[1],2.14 µM (active)
same,AC50,[3],10.5 µM (active)
CCC(CO)Oc1cc(NC(=O)c2ccccc2C)c2ncn(C(C)C)c2c1 (stereo unspecified),IC50,[12],> 66.6 µM (inactive)
same,IC50,[13],17.6 µM (active)
Cc1ccc(Cl)cc1Nc1nc(-c2sc(NC(=O)C(C)(C)C)nc2C)cs1,CC50,[14],21.4 µM (active)
same,IC50,[12],> 66.6 µM (inactive)
same,IC50,[13],9.1 µM (active)
COc1ccc(CC(N)c2csc(NC(=O)Nc3ccc(C(C)C)cc3)n2)cc1 (stereo unspecified),AC50,[1],10.9 µM (active)
same,AC50,[2],11.9 µM (active)
same,AC50,[3],5.16 µM (active)
O=C(NCCN1CCC(n2c(O)nc3ccccc32)CC1)c1cccc2c1-c1ccccc1C2=O,IC50,[12],> 66.6 µM (inactive)
same,IC50,[13],17.9 µM (active)
Cc1[nH]n(-c2ccccc2)c(=O)c1C(c1cccc([N+](=O)[O-])c1)c1c(C)[nH]n(-c2ccccc2)c1=O,IC50,Genome polyprotein,52.9 µM (active)
same,AC50,[15],3.28 µM (active)
same,EC50,Protein RecA,805 nM (active)
